Experimental data reported in article PMC5924788 (Frontiers in Chemistry, 2018).
Like-named read-outs stand apart in the source and are kept apart here. Marks after values point to notes of the source that are not given here.

Columns and labels:
[1] = molecular target: T1, AChE (Electrophorus electricus, UniProt O42275); experiment: AChE inhibition, Ellman's method; type: biochemical, Electrophorus electricus (electric eel)
T1 construct: purchased Sigma-Aldrich Química S. A
Text: (§1) Acetylcholinesterase (AChE) from Electrophorus electricus (electric eel), butyrylcholinesterase (BChE) and acetylthiocholine iodide (ATCI), butyrylthiocholine iodide (BTCI), 5,5′-dithiobis-(2-nitrobenzoate) (DTNB), (4,5-dimethylthiazol-2-yl)-2,5-diphenyl tetrazolium (MTT) bromide and Dulbecco's modified Eagle's medium (DMEM) with 4.5 g/L glucose were obtained from Sigma-Aldrich Química S. A. Reagents used in cell culture, including nonessential amino acids (NEAA), heat inactivated fetal bovine serum (FBS), 0.05% trypsin/1 mM EDTA, antibiotic (10000 U/mL penicillin, 10,000 μg/mL streptomycin) and Hank's balanced salt solution (HBSS) were purchased from Gibco Laboratories. Dimethylsulfoxide (DMSO-d6), absolute ethanol and acetic acid were obtained from Merck. All reagents were of analytical grade or of the highest grade available.
(§2) Briefly, 100 μL of sodium phosphate buffer, 40 μL of DTNB, 20 μL of the test compounds/standard inhibitors and 20 μL of AChE or BChE were incubated for 5 min at 30°C in a 96-well microplate (BRANDplates, pureGradeTM, BRAND GMBH, Wertheim, Germany). After that, 20 μL of ATCI or BTCI was added, respectively. […] A control using 20 μL of sodium phosphate buffer instead of compound solution was also performed. The IC50 values were determined in triplicate from the dose-response inhibition curves and are expressed as mean ± standard deviation (SD).
(§3) ATCI and BTCI were used as substrates for AChE or BChE, respectively, generating thiocholine and acetate or butyrate.

[2] = molecular target: T2, BChE (Homo sapiens, UniProt P06276); experiment: biochemical
T2 construct: purchased Sigma-Aldrich Química S. A
Text: as §1, §2, §3

[3] = mean ± SD; ref Teixeira et al. ([2017a]); cited from earlier work
[4] = ref Teixeira et al. ([2017a]); cited from earlier work
[5] = test system: SH-SY5Y cells; experiment: Neuroprotection against Aβ1–42 peptide-induced cytotoxicity (resazurin reduction); conditions: for neuroprotective effect against Aβ1–42 peptide-induced cytotoxicity: 10 μM pre-treatment 24 h, then Aβ1–42 25 μM 48 h
Description: The antioxidant efficiency of the new HBAc derivatives was evaluated in the presence of Aβ1–42 peptide. […] Aβ1–42 aliquots were then stored at −20°C until use (enriched oligomeric Aβ1–42 preparation).
Undifferentiated SH-SY5Y cells were seeded onto 96-well plates (8000 cells/well) and differentiated as previously described. […] After incubation time, cellular metabolic activity was determined using the resazurin reduction assay as previously described.
Aβ aggregation, the pathological hallmark of AD, is the most targeted biomarker in drug discovery and development for AD.

[6] = mean ± SD; ref Teixeira et al. ([2017a]); cited from earlier work; remark: listed apart in the source
[7] = test system: SH-SY5Y cells; experiment: Cytotoxicity in differentiated SH-SY5Y cells (MTT reduction); type: cell-based, human; conditions: 24 h; for cellular metabolic activity (MTT reduction), cytotoxicity: differentiated SH-SY5Y, 1, 10 and 50 μM
Description: SH-SY5Y (ATCC, Manassas, VA, USA), a neuroblastoma cell line, was routinely cultured in 75-cm^2 flasks (Corning Costar, Corning, NY, USA) using DMEM with 4.5 g/L glucose, supplemented with 10% heat-inactivated FBS (v/v), 1% NEAA (v/v), 100 U/mL penicillin, and 100 μg/mL streptomycin. The cells used for all the experiments were taken between the 37th and 45th passages, to avoid phenotypic changes. […] Three days after seeding, the medium of cells was changed, adding cell culture medium with 0.1% of TPA for more 3 days before treatment.
(§4) The cytotoxicity profile of the compounds under study was evaluated in differentiated SH-SY5Y cells (8,000 cells/well), according the differentiation protocol previously described, and in HepG2 cells (2.5 × 10^4 cells/well), seeded into 96-well plates. […]. In both assays, the reduction of MTT tetrazolium salt or resazurin to MTT formazan or resorufin, respectively, by cellular dehydrogenases present in viable cells, gives insights on cell metabolic activity.
For the MTT assay, the cell culture medium was removed after the incubation time, followed by the addition of fresh cell culture medium containing 0.5 mg/mL MTT and incubation for 30 min. After this incubation period, the cell culture medium was removed, and the formed formazan crystals dissolved in DMSO. The absorbance was measured at 550 nm in a multi-well plate reader (BioTek Instruments, Vermont, USA). The percentage of MTT reduction relative to that of the control cells was used as the cytotoxicity measure [MTT reduction (% of control)] as means ± SEM of four independent experiments.

[8] = test system: HepG2 cells; experiment: Cytotoxicity in HepG2 cells (resazurin reduction); type: cell-based, human; conditions: 48 h; for cellular metabolic activity (resazurin reduction), cytotoxicity: HepG2, 1, 10 and 50 μM
Description: Human hepatocellular carcinoma cells (HepG2, ECACC, UK) were also used in this study. Cells were cultured in low-glucose medium (5 mM) composed by Dulbecco's modified Eagle's medium (DMEM, D5030) supplemented with sodium pyruvate (0.11 g/L), sodium bicarbonate (3.7 g/L), HEPES (1.19 g/L), 6 mM glutamine and 10% fetal bovine serum (FBS) and 1% of antibiotic penicillin-streptomycin 100 × solution. HepG2 (2.5 × 10^4 cells/well) cells were seeded in a 96-well plate and proliferate for 24 h before treatment.
as §4
Regarding the resazurin reduction assay, after the incubation time, the medium was replaced by fresh medium containing resazurin (10 μg/mL) prepared in sterile PBS (1X) and left to react for 1 h. The fluorescent signal was monitored using a 540 nm excitation wavelength and 590 nm emission wavelength in a Cytation 3 reader (BioTek Instruments Inc., USA). The percentage of resazurin reduction relative to that of the control cells was used as the cytotoxicity measure [resazurin reduction (% of control)] as means ± SEM of four independent experiments.

[9] = molecular target: T2, BChE; experiment: BChE-inhibitor kinetics (Lineweaver-Burk and Dixon plots); type: biochemical
Description: (§5) To evaluate the mechanism of AChE and BChE inhibition of the most promising compounds substrate-dependent kinetic experiments were performed. […] The results are presented as double reciprocal Lineweaver-Burk plots (1/V vs. 1/[S]). The kinetic data, namely Km and Vmax, were acquired employing Michaelis-Menten equation. The Ki values were estimated using Dixon plots, by replotting the slope of each Lineweaver-Burk plot vs. the inhibitor concentration. In the Dixon plots, the Ki value was obtained from the x-axis intercept (–Ki). The enzymatic reactions and measurements were performed using the same AChE and BChE assay conditions as described above (determined in triplicate). Linear regression analysis was performed using GraphPad Prism 5.0 (GraphPad Software, Inc.).
(§6) In order to understand the AChE and BChE inhibitory mechanism of the most promising ChE inhibitors, kinetic experiments were performed. […] Graphical analysis of the reciprocal Lineweaver–Burk plots was used to determine Michaelis-Menten reaction kinetic parameters (Km and Vmax).

[10] = DPPH radical scavenging assay; conditions: mean ± SD, triplicate
Description: (§7) The IC50 values were determined in triplicate from the dose-response inhibition curves and are expressed as mean ± standard deviation (SD).

[11] = Redox properties by differential pulse and cyclic voltammetry; type: physicochemical; conditions: physiological pH 7.4, differential pulse voltammetry, glassy carbon electrode
Description: Voltammetric studies were performed using an Autolab PGSTAT12 potentiostat/galvanostat (Metrohm Autolab, Netherland) and a one-compartment glass electrochemical cell.

[12] = ABTS radical cation scavenging assay; conditions: mean ± SD, triplicate
Description: as §7

[13] = molecular target: T1, AChE; experiment: AChE-inhibitor kinetics (Lineweaver-Burk and Dixon plots); type: biochemical, Electrophorus electricus (electric eel)
Description: as §5, §6

[14] = mean ± SD, triplicate, 30°C, read-out: IC50 BChE
[15] = Lineweaver-Burk plots, Vmax decreased, Km unchanged

T2 sequence (P06276 29-602, species assumed): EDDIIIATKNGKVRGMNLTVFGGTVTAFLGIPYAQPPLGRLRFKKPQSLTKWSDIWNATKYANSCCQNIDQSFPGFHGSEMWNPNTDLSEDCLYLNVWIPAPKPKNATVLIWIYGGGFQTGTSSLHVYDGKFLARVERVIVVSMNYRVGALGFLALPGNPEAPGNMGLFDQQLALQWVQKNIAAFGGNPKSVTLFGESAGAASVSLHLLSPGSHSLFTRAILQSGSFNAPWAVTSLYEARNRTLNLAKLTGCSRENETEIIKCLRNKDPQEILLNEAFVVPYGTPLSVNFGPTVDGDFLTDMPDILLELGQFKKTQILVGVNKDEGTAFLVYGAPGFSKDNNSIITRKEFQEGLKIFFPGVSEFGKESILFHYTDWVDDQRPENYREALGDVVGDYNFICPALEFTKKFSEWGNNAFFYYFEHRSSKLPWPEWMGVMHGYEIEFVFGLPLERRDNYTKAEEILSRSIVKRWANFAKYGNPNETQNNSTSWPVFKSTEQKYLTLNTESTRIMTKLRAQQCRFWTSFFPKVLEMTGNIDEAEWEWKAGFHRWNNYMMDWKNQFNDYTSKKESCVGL
T1 sequence (O42275 24-633): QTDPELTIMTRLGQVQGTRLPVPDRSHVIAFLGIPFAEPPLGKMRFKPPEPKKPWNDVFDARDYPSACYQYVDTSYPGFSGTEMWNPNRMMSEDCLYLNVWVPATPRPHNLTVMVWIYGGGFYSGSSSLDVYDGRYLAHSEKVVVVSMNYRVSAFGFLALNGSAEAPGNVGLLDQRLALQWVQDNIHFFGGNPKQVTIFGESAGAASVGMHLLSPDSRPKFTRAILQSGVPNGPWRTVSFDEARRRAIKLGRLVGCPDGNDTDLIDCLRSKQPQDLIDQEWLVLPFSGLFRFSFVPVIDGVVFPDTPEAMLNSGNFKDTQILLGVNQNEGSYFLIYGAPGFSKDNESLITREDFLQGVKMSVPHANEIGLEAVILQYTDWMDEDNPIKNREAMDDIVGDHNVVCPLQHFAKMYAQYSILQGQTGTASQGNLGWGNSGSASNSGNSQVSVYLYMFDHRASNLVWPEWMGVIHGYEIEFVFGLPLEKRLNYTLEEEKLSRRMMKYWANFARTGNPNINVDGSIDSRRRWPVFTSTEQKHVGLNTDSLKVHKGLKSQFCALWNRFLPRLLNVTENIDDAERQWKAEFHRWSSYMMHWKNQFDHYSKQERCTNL

Molecule | IC50 [1] [µM] | SI: BChE selectivity index = IC50(AChE)/IC50(BChE) [2] | neuroprotective effect against Aβ1–42 peptide-induced cytotoxicity [5] | cellular metabolic activity (MTT reduction), cytotoxicity [7] | cellular metabolic activity (resazurin reduction), cytotoxicity [8] | IC50 [2] [µM] | IC50 [10] [µM] | Ep (oxidation potential) [11] [mV] | IC50 [12] [µM] | also measured
O=C(NCCCCCC[P+](c1ccccc1)(c1ccccc1)c1ccccc1)c1ccc(O)c(O)c1 [AntiOxBEN1] | > 50 | > 588 | significantly prevented Aβ1–42 peptide-induced dysfunction/cell death | dose-dependent toxicity | dose-dependent toxicity |  |  |  |  | effect on AChE ([1]; at 50 μM): did not have any effect; IC50 [2, 14]: 0.085 ± 0.005 µM; IC50 [3]: 31 ± 0.8 µM; Ep (oxidation potential) [4]: 219^* mV; IC50 [6]: 20.7 ± 0.8 µM; Ki [9]: 0.0295 µM; BChE inhibition mechanism [9, 15]: non-competitive
O=C(NCCCCCC[P+](c1ccccc1)(c1ccccc1)c1ccccc1)c1cc(O)c(O)c(O)c1 [AntiOxBEN2] | 40.5 ± 7 | 86 | more evident | did not alter cellular metabolic activity | did not alter cellular metabolic activity |  |  |  |  | IC50 [2, 14]: 0.474 ± 0.017 µM; IC50 [3]: 14 ± 0.3 µM; Ep (oxidation potential) [4]: 115^* mV; IC50 [6]: 6.5 ± 0.5 µM
O=C(NCCCCCCCC[P+](c1ccccc1)(c1ccccc1)c1ccccc1)c1ccc(O)c(O)c1.[Br-] [Compound 15, (8-(3,4-Dihydroxybenzamido)octyl)triphenylphosphonium bromide] | 11.2 ± 0.8 | 106 |  | dose-dependent toxicity | dose-dependent toxicity | 0.106 ± 0.005 | 31.2 ± 0.9 | 216 | 23.5 ± 1.3 | 
O=C(NCCCCCCCC[P+](c1ccccc1)(c1ccccc1)c1ccccc1)c1cc(O)c(O)c(O)c1.[Br-] [Compound 16, (8-(3,4,5-Trihydroxybenzamido)octyl)triphenylphosphonium bromide] | 15.7 ± 0.9 | 62 | more evident | did not alter cellular metabolic activity | did not alter cellular metabolic activity | 0.255 ± 0.009 | 16.8 ± 1.6 | 121 | 6.8 ± 0.6 | 
O=C(NCCCCCCCCCC[P+](c1ccccc1)(c1ccccc1)c1ccccc1)c1ccc(O)c(O)c1.[Br-] [Compound 17, (10-(3,4-Dihydroxybenzamido)decyl)triphenylphosphonium bromide] | 7.7 ± 0.4 |  | more evident | dose-dependent toxicity | dose-dependent toxicity | 0.195 ± 0.02 | 31 ± 0.6 | 210 | 19.4 ± 1 | 
O=C(NCCCCCCCCCC[P+](c1ccccc1)(c1ccccc1)c1ccccc1)c1cc(O)c(O)c(O)c1.[Br-] [Compound 18, (10-(3,4,5-Trihydroxybenzamido)decyl)triphenylphosphonium bromide] | 7.2 ± 0.5 | 13 | significantly prevented Aβ1–42 peptide-induced dysfunction/cell death | did not alter cellular metabolic activity | did not alter cellular metabolic activity | 0.553 ± 0.022 | 10.2 ± 1.1 | 114 | 7.4 ± 0.5 | Ki [13]: 6.6 µM; AChE inhibition mechanism [13, 15]: non-competitive; cellular metabolic activity (MTT reduction) ([7]; SH-SY5Y, 1 and 10 μM): slightly increased; cellular metabolic activity (resazurin reduction) ([8]; HepG2, 10 and 50 μM): slightly increased
Aβ1–42 [reference compound] |  |  |  |  |  |  |  |  |  | decrease of cell viability compared to control ([5]; Aβ1–42 peptide 25 μM, 48 h, resazurin): about 28%
